# Measured values reported in paper PMC5654968 (NPJ Systems Biology and Applications, 2017).
# Where two headings read alike, the source gives them in different places.
# Type: in vivo, rat
# Experimental: Distilled water and saline were administered as vehicle to rats in each control group. […] Plasma cytokine levels were measured by ELISA or multiplex immunoassay; common metabolites and lipid mediators were analyzed by GC-MS/MS and LC-MS/MS, respectively.
# Pathway maps of lipid mediators were created by using CellDesigner 4.4 software (http://www.celldesigner.org). We evaluated the effects of the treatments on specific lipid mediators and categorized them according to COX, CYP and LOX pathways by Fisher’s exact test. The proinflammatory and anti-inflammatory indices were analyzed as described by Tam et al. with modification.[22]
# [1] = PM/P (polyI:C+maoto vs polyI:C), 2h
# [2] = PM/P (polyI:C+maoto vs polyI:C), 4h
# [3] = first value of an incomplete line, time (2h or 4h) not assignable
Structure (SMILES),"log2FC of plasma level (M/C (maoto vs control), 2h)","log2FC of plasma level (M/C (maoto vs control), 4h)","log2FC of plasma level (P/C (polyI:C vs control), 2h)","log2FC of plasma level (P/C (polyI:C vs control), 4h)",log2FC of plasma level [1],log2FC of plasma level [2],log2FC of plasma level,log2FC of plasma level [3]
CCCCC/C=C/C=C/C(=O)CCCCCCCC(=O)O [9-KODE],-0.09,-0.95,-0.17,0.97,-0.03,-1.16,–,–
CC/C=C\C/C=C\CC(O)/C=C/C=C\C/C=C\C/C=C\CCC(=O)O (stereo not shown) [14-HDoHE],0.82,-0.39,-0.32,0.40,0.58,-0.58,–,–
CCC(O)/C=C/C=C\C/C=C\C/C=C\C/C=C\C/C=C\CCC(=O)O (stereo not shown) [20-HDoHE],-0.10,-0.54,-0.13,0.44,0.06,-0.71,–,–
CC/C=C\C/C=C\C/C=C\C=C\C(O)C/C=C\C/C=C\CCC(=O)O (stereo not shown) [10-HDoHE],0.15,-0.47,0.01,0.14,-0.04,-0.60,–,–
CC/C=C\C/C=C\C/C=C\CC(O)/C=C/C=C\C/C=C\CCC(=O)O (stereo not shown) [11-HDoHE],0.35,-0.42,0.05,0.13,0.03,-0.58,–,–
CCCCC[C@@H](/C=C/C=C\CCCCCCCC(=O)O)OO [13-HpODE],2.37,-2.47,0.75,0.25,-0.76,-1.63,–,–
CC/C=C\C=C\C(O)C/C=C\C/C=C\C/C=C\C/C=C\CCC(=O)O (stereo not shown) [16-HDoHE],0.10,-0.60,-0.12,0.38,0.16,-0.76,–,–
CCCCC/C=C\C=C\C(O)CCCCCCCC(=O)O (stereo not shown) [9-HODE],-0.05,-0.53,-0.02,0.50,-0.13,-0.97,–,–
CCCCCC(O)/C=C/C=C\CCCCCCCC(=O)O (stereo not shown) [13-HODE],0.14,-0.46,0.15,0.36,-0.11,-0.80,–,–
"CCCCCC(O)C(O)C/C=C\C/C=C\C/C=C\CCCC(=O)O (stereo not shown) [14,15-DHET]",0.79,0.01,0.07,0.40,0.22,-0.41,–,–
"CCCCC/C=C\C[C@H]1O[C@H]1C/C=C\C/C=C\CCCC(=O)O [11,12-EET]",-0.50,-0.33,-0.22,0.37,-0.13,-0.59,–,–
"CCCCC/C=C\C/C=C\C/C=C\CC(O)C1CCCC(=O)O1 (stereo not shown) [5,6-DHET-lactone]",–,–,–,–,–,–,-0.87,0.53
"CCCCCC(=O)CCC1C(O)CC(O)C1CCC(=O)O (stereo not drawn) [13,14-dihydro-15-keto-tetranor-PGF1α]",–,–,–,–,–,–,0.16,0.18
